Where a SMILES comes first, the peptide text is derived from it. Bridges are numbered along the chain shown (N, C = ends). [ ]: non-standard residue; d: D form. NMeR = CN[C@@H](CCCNC(=N)N)C(=O)O; hArg = N=C(N)NCCCC[C@H](N)C(=O)O; Cit = NC(=O)NCCC[C@H](N)C(=O)O; Pen = CC(C)(S)[C@H](N)C(=O)O; Sar = CNCC(=O)O
Test: Inhibition of human washed platelet aggregation

With `CC(=O)N[C@H]1CSSC(C)(C)[C@@H](C(N)=O)NC(=O)[C@H](CC(=O)O)NC(=O)CNC(=O)[C@H](CCCN=C(N)N)N(C)C1=O` (Ac-C[NMeR]GD[Pen]-NH2; disulfide 1-5) as the molecule, how does the Ki read?
Its Ki is 0.062 µM.

Test: Inhibition of canine platelet-rich plasma agregation induced by ADP

Which IC50 does the source give for `CC(=O)N[C@@H](CCCNC(=N)N)C(=O)NCC(=O)N[C@H](CC(=O)N[C@@H](CO)C(N)=O)C(=O)O` here?
Its IC50 is > 200 µM.

With `CC(=O)N[C@H](CCCCNC(=N)N)C(=O)NCC(=O)N[C@@H](CC(=O)O)C(=O)N[C@@H](CO)C(N)=O` as the molecule, how does the IC50 read?
The IC50 was 68.2 µM.

For `CC(=O)N[C@@H](CCCNC(=N)N)C(=O)NCC(=O)N[C@@H](CCC(=O)O)C(=O)N[C@@H](CO)C(N)=O`, which IC50 is on record?
The IC50 was > 200 µM.

For `CC(=O)N[C@@H]1C(=O)N[C@@H](CCCN=C(N)N)C(=O)NCC(=O)N[C@@H](CC(=O)O)C(=O)N[C@H](C(N)=O)CSSC1(C)C`, which IC50 is on record?
Its IC50 is 7.97 µM.

With `CC(=O)N[C@@H](CCCNC(=N)N)C(=O)NCC(=O)N[C@@H](CC(=O)O)C(N)=O` as the molecule, how does the IC50 read?
The IC50 was 138 µM.

Which IC50 does the source give for `CC(=O)N[C@H]1CSSC[C@@H](C(N)=O)NC(=O)[C@H](CC(=O)O)NC(=O)CNC(=O)[C@H](CCCN=C(N)N)NC(=O)CNC1=O` here?
The IC50 was 52 µM.

Which IC50 does the source give for `CC(=O)N[C@H]1CSSC[C@@H](C(N)=O)NC(=O)[C@H](CC(=O)O)NC(=O)CNC(=O)[C@H](CCCN=C(N)N)NC1=O` here?
The IC50 was 16.2 µM.

Which IC50 does the source give for `CC(=O)N[C@H]1CSSC(C)(C)[C@@H](C(N)=O)NC(=O)[C@H](CC(=O)O)NC(=O)CNC(=O)[C@H](CCCN=C(N)N)NC(=O)CNC1=O` here?
The IC50 was 11.4 µM.

Which IC50 does the source give for `CC(=O)N[C@@H](CCCNC(=N)N)C(=O)NCC(=O)N[C@@H](CC(=O)O)C(=O)NCCc1ccccc1` here?
The IC50 was 75.9 µM.

Which IC50 does the source give for `CC(=O)N[C@H]1CSSC(C)(C)[C@@H](C(N)=O)NC(=O)[C@H](CC(=O)O)NC(=O)CN(C)C(=O)[C@H](CCCN=C(N)N)NC1=O` here?
The IC50 was 73.4 µM.

Which IC50 does the source give for `CC(=O)N[C@@H]1C(=O)N(C)[C@@H](CCCN=C(N)N)C(=O)NCC(=O)N[C@@H](CC(=O)O)C(=O)N[C@H](C(N)=O)C(C)(C)SSC1(C)C` here?
Its IC50 is 0.37 µM.

For `CC(=O)N[C@H]1CSSC(C)(C)[C@@H](C(N)=O)NC(=O)[C@H](CC(=O)O)NC(=O)CNC(=O)[C@H](CCCCN)NC1=O` (Ac-CKGD[Pen]-NH2; disulfide 1-5), which IC50 is on record?
The IC50 was 55.3 µM.

Which IC50 does the source give for `CC(=O)N[C@H]1CSSC(C)(C)[C@@H](C(N)=O)NC(=O)[C@H](CC(=O)O)NC(=O)[C@H](C)NC(=O)[C@H](CCCN=C(N)N)NC1=O` (Ac-CRAD[Pen]-NH2; disulfide 1-5) here?
The IC50 was 200 µM.

For `CC(=O)N[C@H]1CSSC[C@@H](C(N)=O)NC(=O)[C@H](CO)NC(=O)[C@H](CC(=O)O)NC(=O)CNC(=O)[C@H](CCCN=C(N)N)NC1=O` (Ac-CRGDSC-NH2; disulfide 1-6), which IC50 is on record?
Its IC50 is 32.7 µM.

With `CC(=O)N[C@H]1CSSC(C)(C)[C@@H](C(N)=O)NC(=O)[C@H](CC(=O)O)NC(=O)CNC(=O)[C@H](CCCN=C(N)N)N(C)C1=O` (Ac-C[NMeR]GD[Pen]-NH2; disulfide 1-5) as the molecule, how does the IC50 read?
Its IC50 is 0.355 µM.

With `CC(=O)N[C@H]1CSSC(C)(C)[C@@H](C(N)=O)NC(=O)[C@H](CC(N)=O)NC(=O)CNC(=O)[C@H](CCCN=C(N)N)N(C)C1=O` (Ac-C[NMeR]GN[Pen]-NH2; disulfide 1-5) as the molecule, how does the IC50 read?
The IC50 was > 200 µM.

With `CC(=O)N[C@H]1CSSC(C)(C)[C@@H](C(N)=O)NC(=O)[C@H](CC(=O)O)NC(=O)CNC(=O)[C@H](CCCCN=C(N)N)NC1=O` (Ac-C[hArg]GD[Pen]-NH2; disulfide 1-5) as the molecule, how does the IC50 read?
The IC50 was 3.85 µM.

Which IC50 does the source give for `CC(=O)N[C@@H](Cc1cnc[nH]1)C(=O)NCC(=O)N[C@@H](CC(=O)O)C(=O)N[C@@H](CO)C(N)=O` (Ac-HGDS-NH2) here?
Its IC50 is > 200 µM.

For `CC(=O)N[C@@H](CCCCN)C(=O)N[C@H]1CSSC(C)(C)[C@@H](C(=O)O)NC(=O)[C@H](CC(=O)O)NC(=O)CNC(=O)[C@H](C)NC1=O` (Ac-KCAGD[Pen]-OH; disulfide 2-6), which IC50 is on record?
The IC50 was > 200 µM.

For `CC(=O)N[C@@H](CCCCN)C(=O)NCC(=O)N[C@@H](CC(=O)O)C(=O)N[C@@H](CO)C(N)=O` (Ac-KGDS-NH2), which IC50 is on record?
The IC50 was > 200 µM.

For `CC(=O)N[C@@H](CCCCN)C(=O)NCC(=O)N[C@@H](CCC(=O)O)C(=O)N[C@@H](CO)C(N)=O` (Ac-KGES-NH2), which IC50 is on record?
Its IC50 is > 200 µM.

Which IC50 does the source give for `CC(=O)N[C@@H](CCCNC(=N)N)C(=O)N[C@@H](C)C(=O)N[C@@H](CC(=O)O)C(=O)N[C@@H](CO)C(N)=O` (Ac-RADS-NH2) here?
Its IC50 is > 200 µM.

With `CCNC(=O)[C@H](CO)NC(=O)[C@H](CC(=O)O)NC(=O)CNC(=O)[C@H](CCCNC(=N)N)NC(C)=O` (Ac-RGDS-NHEt) as the molecule, how does the IC50 read?
The IC50 was > 200 µM.

With `CC(=O)N[C@@H](CCCNC(=N)N)C(=O)NCC(=O)N[C@@H](CC(=O)O)C(=O)N[C@H](C(N)=O)C(C)C` (Ac-RGDV-NH2) as the molecule, how does the IC50 read?
The IC50 was 55.5 µM.

With `CC(=O)N[C@@H](CCCNC(=N)N)C(=O)NCC(=O)N[C@@H](CC(=O)O)C(=O)N[C@@H](Cc1ccc(O)cc1)C(N)=O` (Ac-RGDY-NH2) as the molecule, how does the IC50 read?
The IC50 was 102 µM.

For `CC(=O)N[C@@H](CCCNC(=N)N)C(=O)NCC(=O)N[C@@H](CC(N)=O)C(=O)N[C@@H](CO)C(N)=O` (Ac-RGNS-NH2), which IC50 is on record?
The IC50 was > 200 µM.

With `CC(=O)N[C@@H](CCCNC(=N)N)C(=O)N1CCC[C@H]1C(=O)N[C@@H](CC(=O)O)C(=O)N[C@@H](CO)C(N)=O` (Ac-RPDS-NH2) as the molecule, how does the IC50 read?
The IC50 was > 200 µM.

Which IC50 does the source give for `CC(=O)N[C@@H](CCCNC(=N)N)C(=O)N(C)CC(=O)N[C@@H](CC(=O)O)C(=O)N[C@@H](CO)C(N)=O` (Ac-R[Sar]DS-NH2) here?
Its IC50 is > 200 µM.

With `CC(=O)N[C@@H](CCCNC(N)=O)C(=O)NCC(=O)N[C@@H](CC(=O)O)C(=O)N[C@@H](CO)C(N)=O` (Ac-[Cit]GDS-NH2) as the molecule, how does the IC50 read?
Its IC50 is > 200 µM.

With `CC(=O)N[C@@H](Cc1c[nH]cn1)C(=O)N[C@@H](Cc1c[nH]cn1)C(=O)N[C@@H](CC(C)C)C(=O)NCC(=O)NCC(=O)N[C@@H](C)C(=O)N[C@@H](CCCCN)C(=O)N[C@H]1CSSC(C)(C)[C@@H](C(N)=O)NC(=O)[C@H](CC(=O)O)NC(=O)CNC(=O)[C@H](CCCN=C(N)N)NC1=O` [1N-[1-formyl-(1S)-ethylcarbamoylmethylcarbamoylmethyl]-2-[2-(1H-5-imidazolyl)-1-[2-(1H-5-imidazolyl)-1-methylcarboxamido-(1S)-ethylcarboxamido]-(1S)-ethylcarboxamido]-4-methyl-(2S)-pentanamide [4-Carbamoyl-16-(2,6-diamino-hexanoylamino)-13-(3-guanidino-propyl)-3,3-dimethyl-6,9,12,15-tetraoxo-1,2-dithia-5,8,11,14-tetraaza-cycloheptadec-7-yl]-acetic acid] as the molecule, how does the IC50 read?
The IC50 was 9.6 µM.

For “Ac-HHLGGAKQAGDV-OH [1N-[1-[5-amino-1-formyl-(1S)-pentylcarbamoyl]-(1S)-ethylcarbamoylmethylcarbamoylmethyl]-2-[2-(1H-5-imidazolyl)-1-[2-(1H-5-imidazolyl)-1-methylcarboxamido-(1S)-ethylcarboxamido]-(1S)-ethylcarboxamido]-4-methyl-(2S)-pentanamide 2-[1-[1-[1-amino-3-carbamoyl-(1S)-propylcarboxamido]-(1S)-ethylcarboxamidomethylcarboxamido]-2-carboxy-(1S)-ethylcarboxamido]-3-methyl-(2S)-butanoic acid]”, which IC50 is on record?
The IC50 was > 200 µM.

With Ac-RRGDF-NH2 as the molecule, how does the IC50 read?
The IC50 was 113 µM.

Source: BindingDB's records for doi:10.1021/jm00114a022 (Smithkline Beecham Pharmaceuticals Research and Development, 1991)
